Here are results for one substance from patent US20250281679A1, “BIOMIMETIC COATING FOR ENDOVASCULAR STENT” (INSERM (Institut National de la Santé et de la Recherche …, priority 2021, published 2025).

Square brackets hold non-standard residues; d marks the D form. Primed or numbered codes have the meaning given here. Ends that are not written are not given here. Lys(N3) = [N-]=[N+]=NCCCC[C@H](N)C(=O)O; PEG4′ = not defined here

The test system of assay [1] is Human aortic endothelial cells. The assay is described as follows: Human aortic endothelial cells grown 48 h on bare or peptide-coated nitinol disks; F-actin and CD31 fluorescence image analysis. Type of assay: cell-based. On the procedure: Nitinol disks are left untouched (bare metal) or coated with a domain 1, domain 2 or domain 1 and 2 CD31 analog peptide. The tested peptide is grafted to the nitinol disk following a polydopamine, DBCO-PEG4-amine and azide CD31 derivative peptide using a sequential dip-coating layering procedure. After this step, all the disks are incubated with Human aortic endothelial cells for 48h. Disks are then rinsed and the cells are fixed in a formalin solution before staining. The staining is fulfilled using phalloidin coupled to AlexaFluor®488 dye (green fluorescence for Actin), DAPI is used for DNA staining and a domain 1 CD31 antibody coupled to APC is used for external Domain 1 staining. The cell adhesion and Actin/CD31 expression was evaluated by image analysis of the surface after staining.
In particular, as per FIG. 2 the bare or coated nitinol disks were placed at the bottom of culture wells. Primary Human Aortic Endothelial Cells (HAEC) were allowed to grow on the disks for a period of 48 h. The disks were thereafter rinsed with phosphate buffered saline, fixed in formalin, and processed for fluorescence microscopy. Disk-adherent cells were immersed in a solution comprising Hoechst 33342 (1 μg/ml, to stain the nuclei), phalloidin coupled to AlexaFluor®488 dye (0.5 μM, to stain F-actin fibers) and a monoclonal antibody directed against CD31 domain 1, coupled to allophycocyanin (to detect the presence and localization of intact CD31 at the cell surface) for 1 hour at 37° C., washed and mounted face down on glass bottom imaging chambers for imaging with an inverted fluorescence microscope.
Surface type is indicated on the Y axis, data are expressed as average±SD (N=6/surface type). Each dot corresponds to a specific surface modification. The F-actin expression relates the cellular stress of the cell in presence of the exogenous material.
In FIG. 4 the surface type is indicated on the Y axis. Each dot corresponds to a specific surface modification. Data are expressed as “Integrated Density” average±SD (N=6/surface type). CD31 expression relates the capacity of endothelial cells to adopt a physiologic phenotype while growing on a given substrate. An important variability is observed in terms of CD31 expression by HAEC according to the surface modification of the nitinol disks.
The effect of different peptides, belonging to the different groups, were tested in batches following the same protocol as in FIG. 6. Different peptides from each group were tested in batches and the effect of individual peptides was repeatedly assessed in separate experiments. Data from all experiments were obtained by computer-assisted analysis of images of the disk side covered with endothelial cells, captured in the blue, green and red channel of an inverted fluorescence microscope. The functional score of the peptides belonging to the different groups was calculated by multiplying the number of cells (as detected by the number of blue, Dapi+ nuclei) for the integrated density of CD31 expression (red signal provided by the binding of a mouse anti-human CD31 monoclonal antibody, clone 9G11, conjugated allophycocyanin) and their product being divided for the integrated density of the F-actin polymerization (Phalloidin coupled to a green fluorochrome).
The same protocol as in Example 1 was followed, using peptides according to the invention (SP547, SP548 SP745, SP1374, SP1072, SP1070, SP1071, SP1379 and SP1383) as defined above and the prior art peptide P8RI of sequence KWPALFVR (SEQ ID NO: 52).
The “CD31/Actin” score, resulting from the integrated density of CD31 immunostaining signal divided by the signal of phalloidin, which binds to the polymerized F-actin of the cytoskeleton, has been used to identify the physiological/non-stressed character of the arterial endothelial cells growing onto the surface of experimental disks placed at the bottom of culture wells. […]

Assay [2] has as its system New Zealand White rabbits. The assay is described as follows: Coated flow-diverter stents (CFD) implanted in aneurysm-carrying artery and abdominal aorta of the rabbit aneurysm model, with aspirin and clopidogrel; SEM and histopathology. In kind it is in vivo. An excerpt: Flow-diverter stents (CFD) are braided meshes made of nitinol, from Sinomed. They are coated by one of the following coatings: • 1. SP1072 peptide according to the invention, or • 2. Hydrophilic polymer eG NTMA (obtained from the electrografting of N-[Tris(hydroxymethyl)Methyl] Acrylamide).
A total of 8 healthy New Zealand White rabbits (including 2 spare animals), male and female, weighing about 3 kg, were included in this study. A total of 3 observation time points of 7 days, 30 days and 60 days postoperatively were set. The experiment was divided into two steps: 1) aneurysm animal modeling; 2) implantation of a dense mesh stent in the aneurysm-carrying artery and abdominal aorta for each animal. The stent implantation in the aneurysm-carrying artery was to be used to examine the safety and effectiveness of the stent in treating aneurysms, and the stent implantation in the abdominal aorta, covering a pair of lumbar arteries, was to be used to examine the safety of the tested stent.
The test group was implanted with a dense mesh stent system in the aneurysm location (common carotid artery) and in the abdominal aorta of the animal model, and the control group was implanted with a dense mesh stent system in the aneurysm-carrying artery, where the abdominal aorta was implanted with the device to evaluate the effect of the stent on the penetrating and branch vessels.
In addition to heparin sodium injection 150 U/kg by IV during implantation, antiplatelet therapy (aspirin and clopidogrel) was given to the animals at 5 mg/kg each by feeding once a day for 3 days before surgery and at 5 mg/kg each by feeding postoperative to endpoint.
The collected tissues of the stented segments of the carrier arteries were preserved in 10% neutral formalin for more than 48 hours of immersion fixation, dehydrated in alcohol gradient and treated with xylene transparency for histopathological analysis.
The resin-embedded stented segment of the aneurysm-carrying artery was sectioned transversely through the neck of the aneurysm, with one slice cut at the aneurysm and two slices cut at the non-aneurysm, and stained with HE; the non-stented segment was paraffin-embedded, with one slice cut at the proximal and one at the distal end; HE staining was performed for histopathological evaluation.
One animal each at 7D (7 days), 30D (30 days) and 60D (60 days) was randomly selected, and the aneurysm-carrying artery and abdominal aorta implanted at the above time points were collected for SEM to observe the endothelialization of the flow-directed stent at the aneurysm neck site and the opening site of the branch vessels at the abdominal aorta site.

For assay [3], the system named is New Zealand White rabbits. The assay can be described thus: Coated flow-diverter stents (CFD) in the rabbit aneurysm model, no aspirin nor clopidogrel after implantation. As to conditions: 7 days, n=3, no aspirin nor clopidogrel after the implantation; preliminary. Type of assay: in vivo. An excerpt:
The same materials and protocol as in Example 3 were used, except that: • Only 3 animals were used for each condition, and. • No aspirin nor clopidogrel was given to animals after the implantation.

The mark [4] stands for this setting: day 7, aneurysm-carrying artery, HE staining, FIG. 29.
[5] abbreviates: day 60, aneurysm-carrying artery, FIG. 30.

As for “YKSTVIVNNKEKTTAE-PEG4-K(N3)-CONH2 (YKSTVIVNNKEKTTAE[PEG4′][Lys(N3)]-NH2) [SP1072]”, in assay [1] (Example 2, FIG. 25, compared to bare metal disks or disks coated with PDA alone), the CD31/Actin score result was “significantly higher”. The “CD31 expression, Integrated Density” value in assay [1] (HAEC 48 h on coated nitinol disks, anti-CD31 domain 1 antibody, compared to other modified disks and bare controls, FIGS. 2, 4, 5) was “evident positive effect in terms of CD31 expression”. Also, the “ratio between CD31 and F-actin expression” value in assay [1] (compared to bare metal and disks coated with PDA only, FIG. 6) is given as “higher CD31/actin ratio”. Further, in assay [2] (Example 3 conclusion), the “endothelialization of the device at sites other than the aneurysm entry (conclusion)” value was “fast and complete without apparent inflammation nor neointima”; the “endothelialization on the inner surface of the flow-diverter stents (conclusion)” value is “promotes early endothelialization on the inner surface of the flow-diverter stents”; the “neo arterial wall at the entry of the aneurysm sac and thrombus inside the sac (conclusion)” value is recorded as “promotes the growth of an organized, blood-impermeable neo arterial wall at the entry of the aneurysm sac”. Further, in assay [2] (setting [4]), the “entry of fresh blood into the aneurysmal sac / thrombus (histopathology)” value was “fresh blood is no longer allowed to enter and remain trapped there”; the “organization of the thrombus in the aneurysmal sac (histopathology)” value was “organized”. Moreover, in assay [2] (setting [5]), the “inflammation/thrombosis of the arterial wall in contact with the stent struts (histopathology)” value is “absence of inflammation/thrombosis of the arterial wall that is already in contact with the stent struts” and the “organization of the thrombus in the aneurysmal sac (histopathology)” value was “very well organized”. In assay [3], the “survival and thrombus after implantation” value is “still alive with no thrombus”.
